The results in this text go back to publication PMC10534693, “A High-Performance Liquid Chromatography with Photodiode Array Detection Method for Simultaneous Determination of Three Compounds Isolated from Wikstroemia ganpi: Assessment of the Effects on Cytochrome P450-Mediated Metabolism In Vitro and In Vivo” (Nutrients, 2023).

A short description of data set [1]: In vivo pharmacokinetic study of BUS with or without WGM in rats. Particulars: rat, plasma, po, 30 mg/kg; for AUC(0-inf) / Cmax / half-life: mean ± SD, n = 6. The method, then: The blood was immediately centrifuged at 3000× g for 10 min at 4 °C to obtain the plasma, which was pretreated and analyzed using the UPLC-MS/MS method.
(§1) The average plasma pharmacokinetic parameters, including the area under the curve from time 0 extrapolated to infinity (AUCinf) and the terminal half-life (t1/2), were determined using a non-compartment model (WinNonlin Ver. 3.1; Certara, Inc., Princeton, NJ, USA). The peak time (Tmax) and maximal concentration (Cmax) were obtained directly from the observed plasma concentration-time profiles. A t-test was used to compare two unpaired means, and a p-value of below 0.05 was considered statistically significant.

For the next data set, the system named is CYP3A. Briefly: Inhibition of CYP3A-mediated metabolism (disappearance) of buspirone in rat liver S9 fraction. In kind it is in vitro ADME. Particulars: 1 μM BUS; for IC50 at 30 min: probe buspirone (BUS), rat liver S9 fraction 1 mg/mL, n = 5. As for the experimental part: CYP isoforms-specific probe substrates were BUS for CYP3A, DIC for CYP2C, and DEX for CYP2D [34, 35, 37]. Dose–response curves assessed metabolic inhibition of BUS in the presence of 1 μM BUS and 10 different concentrations (0, 0.1, 0.5, 1, 2, 5, 10, 20, 50, and 100 μM) of 7-methoxyluteolin-5-O-glucoside, pilloin 5-O-β-D-glucopyranoside or rutarensin. The mixture without substrate and inhibitor was incubated for 5 min at 37 °C, after which the substrate and inhibitor were added to initiate the enzyme reaction. After incubating BUS (reaction time: 30 min), DIC and DEX (reaction time: 60 min) at 37 °C at a speed of 500 oscillations/min, a sample was obtained from the reaction mixture and mixed with cold acetonitrile containing an internal standard (IS) to terminate the reaction. After sample preparation, the samples were analyzed using the ultra-performance liquid chromatography–tandem mass spectrometry (UPLC-MS/MS) method (see the sections entitled ‘Biological Sample Preparation’ and ‘UPLC-MS/MS Conditions’ in the Supplementary Materials).
as §1

The nature of data set [2]: Stability of marker components in WGM sample and reference stock solutions (HPLC-PDA peak area). Type of data set: physicochemical. The note with it: for Peak Area (%) 6 h / Peak Area (%) 24 h / Peak Area (%) 48 h / Peak Area (%) 72 h: vs 0 h, n = 5; for Decrease of peak area / Increase of peak area: Reference solution. The text has this: The developed HPLC-PDA simultaneous analysis conditions were validated according to ICH Q2(R1) guidelines. The validation characteristics included specificity, linearity, detection limit, quantitation limit, precision, recovery, and stability. Specificity is defined as the ability to clearly identify an analyte in a sample containing a mixture of impurities. This was verified by comparing and overlaying the chromatograms and PDA spectra obtained from the WGM samples and the reference mixture to confirm that the retention time (tR), spectral pattern, and maximum absorption wavelength (λmax) of the three reference compounds were consistent. Linearity is a test used to derive calibration curves by obtaining measurements that are directly proportional to the concentration of the substance being examined within a certain range. The stock solutions of 7-methoxyluteolin-5-O-glucoside (1), pilloin 5-O-β-D-glucopyranoside (2), and rutarensin (3) were diluted to six target concentrations (5.0, 50.0, 250.0, 400.0, 500.0, and 600.0 μg/mL) in DMSO/MeOH (50:50, v/v) mixtures, and six replicates (n = 6) were performed for each working solution. The calibration curve was expressed using a linear equation (y = ax + b) through linear regression analysis as a function of the area (y) vs. the concentration (x) of each reference peak, and the slope (a), y-intercept (b), and correlation coefficient (r^2) were calculated. The correlation coefficients for the acceptance criteria exceeded 0.999. The detection limit (DL) and quantitation limit (QL) are the minimum detection and quantitation limits of the analyte in the sample, respectively, that can be reliably quantified. These values were measured using the standard deviation (SD) of the y-intercept (σ) and the slope of the calibration curve (S) derived based on the linearity evaluation and were calculated as follows: DL = 3.3 σ/S and QL = 10 σ/S. Precision is an analytical procedure used to evaluate repeatability and reproducibility. The repeatability of the experiment was assessed by measuring the intra- and inter-day precision. Three reference compounds were repeated five times (n = 5) at low, medium and high concentration levels (10.0, 100.0, and 300.0 µg/mL). Intra-day precision was injected on the same day, while inter-day precision was injected on days 1, 3, and 5. The results were determined using the relative standard deviation (RSD) of the peak area. The %RSD was calculated as follows: RSD (%) = (standard deviation/mean measured amount) × 100. %RSD value of <2% means that the developed HPLC-PDA method is precise and reproducible enough for simultaneous analysis and evaluation of the three compounds. […] The analysis was repeated three times (n = 3), and the measured values were calculated as follows: % recovery = (found concentration-original concentration)/spiked concentration × 100. Stability was used to evaluate the degree of change in the solution concentration with storage conditions and time. […] The stability results were evaluated as the %peak area change and %RSD between the mean peak area of the control group (0 h) and that of the experimental group (6, 24, 48, and 72 h).

Setting [3] is: BUS 30 mg/kg oral co-administered with 1 g/kg WGM.
The mark [4] stands for this setting: Reference solution (DMSO/MeOH 50:50), 4 °C.
The mark [5] stands for this setting: Reference solution (DMSO/MeOH 50:50), R.T.

Read-outs that look alike come from different tables or passages of the source.

Regarding `O=C1CC2(CCCC2)CC(=O)N1CCCCN1CCN(c2ncccn2)CC1` [BUS, Buspirone], the Tmax (usually the time from dosing to the highest level) in data set [1] (30 mg/kg oral, with or without WGM, read-out: Tmax of BUS) is 5 to 15 min; in data set [1] (BUS 30 mg/kg oral co-administered with 1 g/kg WGM, n = 6, read-out: Tmax (converted)), 5 min; in data set [1] (BUS alone, 30 mg/kg oral, n = 6, read-out: Tmax (converted)), 10 min. Besides, the AUC(0-inf) (as a rule, the area under the concentration-time curve extrapolated to infinity) in data set [1] (setting [3]) is 1980 ng·h/mL; in data set [1] (BUS alone, 30 mg/kg oral) it was 1640 ng·h/mL. Further, the highest concentration (Cmax) (as a rule, the maximum level reached in the sampled fluid or tissue) was 2020 ± 619 ng/mL in data set [1] (setting [3]) and 1630 ± 762 ng/mL in data set [1] (BUS alone, 30 mg/kg oral). In addition, the half-life (as a rule, the time in which the quantity being followed falls by half) in data set [1] (setting [3]) worked out at 103 ± 27 min; in data set [1] (BUS alone, 30 mg/kg oral), 111 ± 23 min.
Take `COc1cc(O[C@@H]2O[C@H](CO)[C@@H](O)[C@H](O)[C@H]2O)c2c(=O)cc(-c3ccc(O)c(O)c3)oc2c1` [Compound 1, 7-methoxyluteolin-5-O-glucoside]: in the data set with CYP3A, the IC50 (in general, the midpoint of a concentration-inhibition curve) at 30 min turned out to be 2.73 µM. Also, the “Peak Area (%) 6 h” value in data set [2] (setting [4]) came out at 99.15%; in data set [2] (setting [5]), 99.46%; in data set [2] (WGM solution, 4 °C), 100.10%; in data set [2] (WGM solution, R.T.) it was 100.80%. Further, the “Peak Area (%) 24 h” value turned out to be 96.60% in data set [2] (setting [4]); 98.56% in data set [2] (setting [5]); 98.87% in data set [2] (WGM solution, 4 °C); 100.10% in data set [2] (WGM solution, R.T.). Also, the “Peak Area (%) 48 h” value is 96.58% in data set [2] (setting [4]); 100.34% in data set [2] (setting [5]); 98.63% in data set [2] (WGM solution, 4 °C); 97.43% in data set [2] (WGM solution, R.T.). Also, the “Peak Area (%) 72 h” value in data set [2] (setting [4]) is on record as 97.39%; in data set [2] (setting [5]), 99.03%; in data set [2] (WGM solution, 4 °C), 101.60%; in data set [2] (WGM solution, R.T.), 100.99%. In addition, the “Decrease of peak area” value in data set [2] (room temperature, after 6 h) turned out to be 0.54%.
On to `COc1cc(O[C@@H]2O[C@H](CO)[C@@H](O)[C@H](O)[C@H]2O)c2c(=O)cc(-c3ccc(OC)c(O)c3)oc2c1` [Compound 2, pilloin 5-O-β-D-glucopyranoside], for which the IC50 at 30 min with CYP3A was found to be 18.7 µM. The “Peak Area (%) 6 h” value in data set [2] (setting [4]) is 99.29%; in data set [2] (setting [5]), 101.71%; in data set [2] (WGM solution, 4 °C) it was 100.32%; in data set [2] (WGM solution, R.T.), 101.41%. The “Peak Area (%) 24 h” value in data set [2] (setting [4]) was determined as 102.15%; in data set [2] (setting [5]), 103.18%; in data set [2] (WGM solution, 4 °C), 99.18%; in data set [2] (WGM solution, R.T.) it was 101.08%. The “Peak Area (%) 48 h” value was 104.42% in data set [2] (setting [4]); 107.58% in data set [2] (setting [5]); 98.86% in data set [2] (WGM solution, 4 °C); 98.97% in data set [2] (WGM solution, R.T.). For the same compound, the “Peak Area (%) 72 h” value in data set [2] (setting [4]) turned out to be 101.79%; in data set [2] (setting [5]), 103.48%; in data set [2] (WGM solution, 4 °C) it was 102.02%; in data set [2] (WGM solution, R.T.), 103.35%. Further, the “Increase of peak area” value in data set [2] (4 °C, after 48 h) amounted to 4.42%; in data set [2] (R.T., after 48 h) it was 7.58%; in data set [2] (room temperature, after 6 h), 1.71%.
With `COc1cc2cc(Oc3ccc4ccc(=O)oc4c3)c(=O)oc2cc1O[C@@H]1O[C@H](COC(=O)CC(C)(O)CC(=O)O)[C@@H](O)[C@H](O)[C@H]1O` (some centres unmarked) [Compound 3, rutarensin], in the data set on CYP3A (rat liver S9 fraction, 0-100 μM marker compound), the “Inhibition of BUS metabolism (dose-response)” value is recorded as “did not inhibit”. Also, in data set [2] (setting [4]), the “Peak Area (%) 6 h” value is recorded as 98.02%, the “Peak Area (%) 24 h” value amounted to 99.40%, the “Peak Area (%) 48 h” value is recorded as 98.78% and the “Peak Area (%) 72 h” value came out at 101.22%. Moreover, in data set [2] (setting [5]), the “Peak Area (%) 6 h” value is 96.77%, the “Peak Area (%) 24 h” value is 98.82%, the “Peak Area (%) 48 h” value is 98.54% and the “Peak Area (%) 72 h” value is 98.72%. In data set [2] (room temperature, after 6 h), the “Decrease of peak area” value stood at 3.23%. In data set [2] (WGM solution, 4 °C), the “Peak Area (%) 6 h” value was 100.19%, the “Peak Area (%) 24 h” value is given as 99.30%, the “Peak Area (%) 48 h” value is 98.91% and the “Peak Area (%) 72 h” value turned out to be 102.15%. For the same compound, in data set [2] (WGM solution, R.T.), the “Peak Area (%) 6 h” value came out at 101.30%, the “Peak Area (%) 24 h” value is listed as 101.14%, the “Peak Area (%) 48 h” value is given as 98.98% and the “Peak Area (%) 72 h” value was 103.56%.
